Experiments:
[1] = tested on: Jurkat; experiment: MTS proliferation assay, Jurkat; type: cell-based, human; settings: 72 h incubation, read-out: MTS proliferation assay IC 50 Jurkat
How it was run: (§1)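 A 72 h exposure to compound (final 0.3–10 μM, four levels) was followed by 3 h MTS incubation and an A492 read.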

[2] = tested on: Jily; experiment: MTS proliferation assay, Jily; type: cell-based; settings: 72 h incubation, read-out: MTS proliferation assay IC 50 Jily
How it was run: (§2)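 Proliferation is followed by MTS conversion, measured as absorbance at 492 nm. Cells are exposed for 72 h to four fixed compound concentrations (10 μM down to 0.3 μM) under 37° C, 7.5% CO2 culture conditions.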

[3] = tested on: HT1080; experiment: MTS proliferation assay, HT1080; type: cell-based, human; settings: HT1080, 72 h incubation; read-out: MTS proliferation assay IC 50 HT1080
How it was run: as §1

[4] = tested on: HeLa; experiment: MTS proliferation assay, HeLa; type: cell-based, human; settings: 72 h incubation, read-out: MTS proliferation assay IC 50 HeLa
How it was run: as §1

[5] = tested on: MRC5; experiment: MTS proliferation assay, MRC5; type: cell-based; settings: MRC5, 72 h incubation; read-out: MTS proliferation assay IC 50 MRC5
How it was run: as §2

[6] = tested on: adherent cells or suspension cells; experiment: Hoechst 33342 nuclear staining (fraction of apoptotic nuclei); type: cell-based; set-up: key: 0 relating to no activity; 1 relating to weak activity comprising less than 70% of the cells; score 2 relating to strong activity comprising more than 70% of the cells

Row | SMILES | IC50 [1] [nM] | IC50 [2] [nM] | IC50 [3] [nM] | IC50 [4] [nM] | IC50 [5] [nM] | Hoechst 33342 nuclear staining score ([6]; H460, conc 0.01 μm) | Hoechst 33342 nuclear staining score ([6]; H460, conc 0.1 μm) | Hoechst 33342 nuclear staining score ([6]; H460, conc 1 μm) | Hoechst 33342 nuclear staining score ([6]; HeLa, conc 0.01 μm) | Hoechst 33342 nuclear staining score ([6]; HeLa, conc 0.1 μm) | Hoechst 33342 nuclear staining score ([6]; HeLa, conc 1 μm) | Hoechst 33342 nuclear staining score ([6]; Jily, conc 0.01 μm) | Hoechst 33342 nuclear staining score ([6]; Jily, conc 0.1 μm) | Hoechst 33342 nuclear staining score ([6]; Jily, conc 1 μm) | Hoechst 33342 nuclear staining score ([6]; MRC5, conc 0.01 μm) | Hoechst 33342 nuclear staining score ([6]; MRC5, conc 0.1 μm) | Hoechst 33342 nuclear staining score ([6]; MRC5, conc 1 μm) | Hoechst 33342 nuclear staining score ([6]; PBLs, conc 0.01 μm) | Hoechst 33342 nuclear staining score ([6]; PBLs, conc 0.1 μm) | Hoechst 33342 nuclear staining score ([6]; PBLs, conc 1 μm) | further results
1 | N#CCCNc1nonc1-c1nc2ccccc2n1CC(=O)c1ccc2ccccc2c1 [Example 46] | < 10 | 10 to 100 | 10 to 100 | 10 to 100 | 100 to 1000 | 0 | 0 | 2 (score 2 relating to strong activity comprising more than 70% of the cells) | 0 | 0 | 2 (score 2 relating to strong activity comprising more than 70% of the cells) | 0 | 2 (score 2 relating to strong activity comprising more than 70% of the cells) | 2 (score 2 relating to strong activity comprising more than 70% of the cells) | 0 | 0 | 2 (score 2 relating to strong activity comprising more than 70% of the cells) | 0 | 0 | 0 | Hoechst 33342 nuclear staining score ([6]; Jurkat, conc 0.01 μm): 0; Hoechst 33342 nuclear staining score ([6]; Jurkat, conc 0.1 μm): 2 (score 2 relating to strong activity comprising more than 70% of the cells); Hoechst 33342 nuclear staining score ([6]; Jurkat, conc 1 μm): 2 (score 2 relating to strong activity comprising more than 70% of the cells)
2 | Nc1nonc1-c1nc2ccccc2n1CC(=NO)c1cccc(Cl)c1 (mixture of isomers) [Example 36] | 10 to 100 | 10 to 100 | 100 to 1000 | 10 to 100 | 100 to 1000 | 0 | 0 | 0 | 0 | 0 | 0 | 0 | 0 | 0 | 0 | 0 | 0 | 0 | 0 | 0 | 
3 | Nc1nonc1-c1nc2ccccc2n1CC(=O)c1cccc(Cl)c1 [Example 35] | 10 to 100 | 10 to 100 | 100 to 1000 | 10 to 100 | 100 to 1000 | 0 | 0 | 2 (score 2 relating to strong activity comprising more than 70% of the cells) | 0 | 0 | 2 (score 2 relating to strong activity comprising more than 70% of the cells) | 0 | 1 (1 relating to weak activity comprising less than 70% of the cells) | 2 (score 2 relating to strong activity comprising more than 70% of the cells) | 0 | 2 (score 2 relating to strong activity comprising more than 70% of the cells) | 2 (score 2 relating to strong activity comprising more than 70% of the cells) | 0 | 0 | 0 | Hoechst 33342 nuclear staining score ([6]; Jurkat, conc 0.01 μm): 0; Hoechst 33342 nuclear staining score ([6]; Jurkat, conc 0.1 μm): 2 (score 2 relating to strong activity comprising more than 70% of the cells); Hoechst 33342 nuclear staining score ([6]; Jurkat, conc 1 μm): 2 (score 2 relating to strong activity comprising more than 70% of the cells)
